Experiments:
Japanese bulrush = assay: Test Example 1: herbicidal activity, application before weed generation under submerged conditions (Table 16, symbol B); assay type: in vivo, Japanese bulrush (Schoenoplectus juncoides)
How it was run: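 Alluvial soil was flooded to 4 cm depth, weed seeds were sown mixed and 2.5-leaf rice seedlings were transplanted. On sowing day, the compound's emulsion, diluted in water to a set dose, was applied to the water surface. Plants grew at 25–30 °C and were scored 0–5 after three weeks.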

late watergrass = assay: Test Example 2: herbicidal activity, application during weed generation under submerged conditions (Table 17, symbol A); assay type: in vivo, late watergrass (Echinochloa oryzicola); conditions: application during weed generation, submerged conditions
How it was run: (§1)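 Mixed weed seedlings in alluvial soil under a 4 cm water layer, greenhouse-grown at 25–30° C. Compound given as a diluted emulsion into the floodwater at the 1–2 leaf stage; response graded after three weeks.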

oval-leafed pondweed = assay: Test Example 2: herbicidal activity, application during weed generation under submerged conditions (Table 17, symbol C); assay type: in vivo, oval-leafed pondweed (Monochoria vaginalis); conditions: application during weed generation, submerged conditions
How it was run: as §1

Chinese sprangletop = assay: Test Example 3: herbicidal effect by foliage application, Wagner pot (Table 18, symbol D); assay type: in vivo, chinese sprangletop (Leptochloa chinensis)
How it was run: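 Plants were sown in alluvial soil held under 0.1–0.5 cm standing water and grown 14 days in a greenhouse at 25–30 °C. An emulsifiable formulation, water-diluted to the set dose, was then sprayed onto the foliage, and effects were scored three weeks later using previously defined criteria.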

southern crabgrass = assay: Test Example 4: herbicidal effect by soil treatment (Table 19, symbol F); assay type: in vivo, southern crabgrass (Digitaria ciliaris); conditions: for herbicidal effect rating, F: southern crabgrass: 320 g/ha
How it was run: (§2)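 Scoring uses the grading scale of an earlier test, three weeks post-application. Treatment consists of spraying a diluted emulsion formulation across the surface of sterilized diluvial soil in which seeds are buried near 1.5 cm deep; boxes are kept in a greenhouse between 25° C. and 30° C.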

wild oat = assay: Test Example 4: herbicidal effect by soil treatment (Table 19, symbol I); assay type: in vivo, wild oat (Avena fatua); conditions: for herbicidal effect rating, I: wild oat: 320 g/ha
How it was run: as §2

blackgrass = assay: Test Example 4: herbicidal effect by soil treatment (Table 19, symbol J); assay type: in vivo, blackgrass (Alopecurus myosuroides); conditions: for herbicidal effect rating, J: blackgrass: 320 g/ha
How it was run: as §2

Italian ryegrass [1] = assay: Test Example 4: herbicidal effect by soil treatment (Table 19, symbol K); assay type: in vivo, Italian ryegrass (Lolium multiflorum); conditions: for herbicidal effect rating, K: Italian ryegrass: 320 g/ha
How it was run: as §2

windgrass = assay: Test Example 4: herbicidal effect by soil treatment (Table 19, symbol L); assay type: in vivo, windgrass (Apera spica-venti); conditions: for herbicidal effect rating, L: windgrass: 320 g/ha
How it was run: as §2

lambsquarters [2] = assay: Test Example 4: herbicidal effect by soil treatment (Table 19, symbol O); assay type: in vivo, lambsquarters (Chenopodium album); conditions: for herbicidal effect rating, O: lambsquarters: 320 g/ha
How it was run: as §2

green foxtail = assay: Test Example 5: herbicidal effect by foliage application, plastic box (Table 20, symbol G); assay type: in vivo, green foxtail (Setaria viridis); conditions: foliage application, 3 weeks after application
How it was run: (§3)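 Post-emergence foliar test in sterilized diluvial soil. Compound applied as water-diluted emulsion at a predetermined rate to 14-day-old plants; evaluation at three weeks.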

Italian ryegrass [3] = assay: Test Example 5: herbicidal effect by foliage application, plastic box (Table 20, symbol K); assay type: in vivo, Italian ryegrass (Lolium multiflorum); conditions: foliage application, 3 weeks after application
How it was run: as §3

velvetleaf = assay: Test Example 5: herbicidal effect by foliage application, plastic box (Table 20, symbol M); assay type: in vivo, velvetleaf (Abutilon theophrasti); conditions: foliage application, 3 weeks after application
How it was run: as §3

lambsquarters [4] = assay: Test Example 5: herbicidal effect by foliage application, plastic box (Table 20, symbol O); assay type: in vivo, lambsquarters (Chenopodium album); conditions: foliage application, 3 weeks after application
How it was run: as §3

| Compound | Herbicidal effect on B: Japanese bulrush (grade 0-5) (Japanese bulrush; 320 g/ha applied herbicide) | herbicidal effect rating, A: late watergrass (late watergrass; AAH 320 g/ha) | herbicidal effect rating, C: oval-leafed pondweed (oval-leafed pondweed; AAH 320 g/ha) | herbicidal effect on D (Chinese sprangletop), rating 0-5 (Chinese sprangletop; 320 g/ha) | F: southern crabgrass, herbicidal effect rating (southern crabgrass; AAH 320 g/ha) | I: wild oat, herbicidal effect rating (wild oat; AAH 320 g/ha) | J: blackgrass, herbicidal effect rating (blackgrass; AAH 320 g/ha) | K: Italian ryegrass, herbicidal effect rating (Italian ryegrass [1]; AAH 320 g/ha) | L: windgrass, herbicidal effect rating (windgrass; AAH 320 g/ha) | O: lambsquarters, herbicidal effect rating (lambsquarters [2]; AAH 320 g/ha) | effect on green foxtail (G) (green foxtail; 320 g/ha) | effect on Italian ryegrass (K) (Italian ryegrass [3]; 320 g/ha) | effect on velvetleaf (M) (velvetleaf; 320 g/ha) | effect on lambsquarters (O) (lambsquarters [4]; 320 g/ha) | herbicidal effect rating, F: southern crabgrass (southern crabgrass) | herbicidal effect rating, I: wild oat (wild oat) | herbicidal effect rating, J: blackgrass (blackgrass) | herbicidal effect rating, K: Italian ryegrass (Italian ryegrass [1]) | herbicidal effect rating, L: windgrass (windgrass) | herbicidal effect rating, O: lambsquarters (lambsquarters [2]) | further results |
| --- | --- | --- | --- | --- | --- | --- | --- | --- | --- | --- | --- | --- | --- | --- | --- | --- | --- | --- | --- | --- | --- |
| C=C(C)COc1ccc(-c2sc3ccccc3c2-c2c(O)c(C)nn(C)c2=O)cc1 [1-208] | 5 (Herbicidal rate of 90% or more (almost completely withered)) | 5 (Herbicidal rate of 90% or more (almost completely withered)) | 3 (Herbicidal rate of 40% or more and less than 70%) | 5 (Herbicidal rate of 90% or more (almost completely withered)) | 0 (Herbicidal rate of 5% or less (almost no effect)) | 0 (Herbicidal rate of 5% or less (almost no effect)) | 0 (Herbicidal rate of 5% or less (almost no effect)) | 4 (Herbicidal rate of 70% or more and less than 90%) | 0 (Herbicidal rate of 5% or less (almost no effect)) | 0 (Herbicidal rate of 5% or less (almost no effect)) | 5 (Herbicidal rate of 90% or more (almost completely withered)) | 5 (Herbicidal rate of 90% or more (almost completely withered)) | 5 (Herbicidal rate of 90% or more (almost completely withered)) | 5 (Herbicidal rate of 90% or more (almost completely withered)) | – | – | – | – | – | – | – |
| C=C(Br)COc1ccc(-c2sc3ccccc3c2-c2c(O)c(C)nn(C)c2=O)cc1 [1-215] | 4 (Herbicidal rate of 70% or more and less than 90%) | 3 (Herbicidal rate of 40% or more and less than 70%) | 3 (Herbicidal rate of 40% or more and less than 70%) | 5 (Herbicidal rate of 90% or more (almost completely withered)) | 0 (Herbicidal rate of 5% or less (almost no effect)) | 0 (Herbicidal rate of 5% or less (almost no effect)) | 0 (Herbicidal rate of 5% or less (almost no effect)) | 0 (Herbicidal rate of 5% or less (almost no effect)) | 0 (Herbicidal rate of 5% or less (almost no effect)) | 3 (Herbicidal rate of 40% or more and less than 70%) | 5 (Herbicidal rate of 90% or more (almost completely withered)) | 4 (Herbicidal rate of 70% or more and less than 90%) | 5 (Herbicidal rate of 90% or more (almost completely withered)) | 5 (Herbicidal rate of 90% or more (almost completely withered)) | – | – | – | – | – | – | – |
| Cc1nn(C)c(=O)c(-c2c(-c3ccc(OCCC4OCCO4)cc3)sc3ccccc23)c1O [1-223] | – | – | – | – | – | – | – | – | – | – | – | – | – | – | – | – | – | – | – | – | Herbicidal effect on B: Japanese bulrush (grade 0-5) (Japanese bulrush; 246 g/ha applied herbicide): 4 (Herbicidal rate of 70% or more and less than 90%); herbicidal effect rating, A: late watergrass (late watergrass; AAH 246 g/ha): 3 (Herbicidal rate of 40% or more and less than 70%); herbicidal effect rating, C: oval-leafed pondweed (oval-leafed pondweed; AAH 246 g/ha): 3 (Herbicidal rate of 40% or more and less than 70%); herbicidal effect on D (Chinese sprangletop), rating 0-5 (Chinese sprangletop; 246 g/ha): 5 (Herbicidal rate of 90% or more (almost completely withered)); F: southern crabgrass, herbicidal effect rating (southern crabgrass; AAH 246 g/ha): 0 (Herbicidal rate of 5% or less (almost no effect)); I: wild oat, herbicidal effect rating (wild oat; AAH 246 g/ha): 0 (Herbicidal rate of 5% or less (almost no effect)); J: blackgrass, herbicidal effect rating (blackgrass; AAH 246 g/ha): 0 (Herbicidal rate of 5% or less (almost no effect)); K: Italian ryegrass, herbicidal effect rating (Italian ryegrass [1]; AAH 246 g/ha): 0 (Herbicidal rate of 5% or less (almost no effect)); L: windgrass, herbicidal effect rating (windgrass; AAH 246 g/ha): 0 (Herbicidal rate of 5% or less (almost no effect)); O: lambsquarters, herbicidal effect rating (lambsquarters [2]; AAH 246 g/ha): 3 (Herbicidal rate of 40% or more and less than 70%); effect on green foxtail (G) (green foxtail; 246 g/ha): 5 (Herbicidal rate of 90% or more (almost completely withered)); effect on Italian ryegrass (K) (Italian ryegrass [3]; 246 g/ha): 3 (Herbicidal rate of 40% or more and less than 70%); effect on velvetleaf (M) (velvetleaf; 246 g/ha): 5 (Herbicidal rate of 90% or more (almost completely withered)); effect on lambsquarters (O) (lambsquarters [4]; 246 g/ha): 5 (Herbicidal rate of 90% or more (almost completely withered)) |
| CSCCSCc1ccc(-c2sc3ccccc3c2-c2c(O)c(C)nn(C)c2=O)cc1 [1-253] | 3 (Herbicidal rate of 40% or more and less than 70%) | 3 (Herbicidal rate of 40% or more and less than 70%) | 0 (Herbicidal rate of 5% or less (almost no effect)) | 3 (Herbicidal rate of 40% or more and less than 70%) | 0 (Herbicidal rate of 5% or less (almost no effect)) | 0 (Herbicidal rate of 5% or less (almost no effect)) | 0 (Herbicidal rate of 5% or less (almost no effect)) | 0 (Herbicidal rate of 5% or less (almost no effect)) | 0 (Herbicidal rate of 5% or less (almost no effect)) | 3 (Herbicidal rate of 40% or more and less than 70%) | 3 (Herbicidal rate of 40% or more and less than 70%) | 4 (Herbicidal rate of 70% or more and less than 90%) | 5 (Herbicidal rate of 90% or more (almost completely withered)) | 5 (Herbicidal rate of 90% or more (almost completely withered)) | – | – | – | – | – | – | – |
| Cc1ccc(-c2sc3ccc(F)cc3c2-c2c(O)c(C)nn(C)c2=O)cc1 [2-012] | 0 (Herbicidal rate of 5% or less (almost no effect)) | 3 (Herbicidal rate of 40% or more and less than 70%) | 0 (Herbicidal rate of 5% or less (almost no effect)) | 5 (Herbicidal rate of 90% or more (almost completely withered)) | – | – | – | – | – | – | 5 (Herbicidal rate of 90% or more (almost completely withered)) | 4 (Herbicidal rate of 70% or more and less than 90%) | 5 (Herbicidal rate of 90% or more (almost completely withered)) | 4 (Herbicidal rate of 70% or more and less than 90%) | 5 (Herbicidal rate of 90% or more (almost completely withered)) | 0 (Herbicidal rate of 5% or less (almost no effect)) | 0 (Herbicidal rate of 5% or less (almost no effect)) | 4 (Herbicidal rate of 70% or more and less than 90%) | 0 (Herbicidal rate of 5% or less (almost no effect)) | 5 (Herbicidal rate of 90% or more (almost completely withered)) | – |
| CCCC(=O)Oc1c(C)nn(C)c(=O)c1-c1c(-c2ccc(C)cc2)sc2ccc(F)cc12 [2-013] | 2 (Herbicidal rate of 20% or more and less than 40%) | 4 (Herbicidal rate of 70% or more and less than 90%) | 3 (Herbicidal rate of 40% or more and less than 70%) | 5 (Herbicidal rate of 90% or more (almost completely withered)) | – | – | – | – | – | – | 5 (Herbicidal rate of 90% or more (almost completely withered)) | 4 (Herbicidal rate of 70% or more and less than 90%) | 5 (Herbicidal rate of 90% or more (almost completely withered)) | 4 (Herbicidal rate of 70% or more and less than 90%) | 5 (Herbicidal rate of 90% or more (almost completely withered)) | 0 (Herbicidal rate of 5% or less (almost no effect)) | 3 (Herbicidal rate of 40% or more and less than 70%) | 4 (Herbicidal rate of 70% or more and less than 90%) | 0 (Herbicidal rate of 5% or less (almost no effect)) | 5 (Herbicidal rate of 90% or more (almost completely withered)) | – |
